Among the test systems are UACC-62 melanoma; NCI-H23 lung; 786-0 renal; HOP-62 NSCLC; NCI/ADR-RES ovarian; RXF 393 renal; HL-60(TB) leukemia; CCRF-CEM leukemia; KM20L2 colon.
Holding throughout (experiment): DTP human tumour cell line panel, 48 h

Among the data in PubChem BioAssay (NCI) are GI50 and TGI values, retold here.

Structures are written as SMILES. Several values for one entry are separate records, joined by “and”; a condition that tells them apart may be missing. Equal values may be shown once.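 Method: 48-hour compound exposure of cells in 96-well plates, five concentrations, linear interpolation of endpoints. GI50: concentration for 50% inhibition of growth. The concentration for full growth arrest is given as TGI.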

What is called GI50 is the concentration that inhibits growth by half. Broadly, the TGI is the concentration giving total growth inhibition. Consider `COCCOCCOCCOCCOC(=O)OC[n+]1ccc(NC(=NCCCCCCOc2ccc(Cl)cc2)NC#N)cc1`, for which the GI50 in the assay on UACC-62 melanoma was 9.97 µM; in the assay on NCI-H23 lung, 4.23 µM; in the assay on 786-0 renal, 10.3 µM; with HOP-62 NSCLC it was 9.58 µM; in the assay with NCI/ADR-RES ovarian, less than 0.0395 µM; in the assay with RXF 393 renal it was 7.44 µM. For the same compound, the GI50 in the assay on HL-60(TB) leukemia is 3.25 µM; with CCRF-CEM leukemia, less than 0.01 µM. The TGI in the assay with UACC-62 melanoma worked out at 22.2 µM; in the assay with NCI-H23 lung, 23.1 µM; in the assay on 786-0 renal, 22.9 µM; in the assay on HOP-62 NSCLC, 24.1 µM; in the assay with NCI/ADR-RES ovarian it was 20.2 µM; in the assay on RXF 393 renal it was 22.3 µM. The TGI came out at 10.7 µM in the assay with HL-60(TB) leukemia and 15 µM in the assay on CCRF-CEM leukemia.
Take `N#CCNC(=O)c1ccc(-c2ccnc(Nc3ccc(N4CCOCC4)cc3)n2)cc1`: the GI50 with UACC-62 melanoma is 4.44 µM and 3.66 µM; in the assay with NCI-H23 lung, 2.71 µM and 1.87 µM; in the assay with 786-0 renal, 1.56 µM and 1.26 µM; in the assay with HOP-62 NSCLC it was 1.88 µM and 2.12 µM; with NCI/ADR-RES ovarian, > 10 µM and 12.4 µM; in the assay on RXF 393 renal, 1.11 µM and 0.345 µM. In addition, the GI50 in the assay on HL-60(TB) leukemia was 4.79 µM and 3.14 µM; in the assay on CCRF-CEM leukemia, 2.5 µM and 2.51 µM. The TGI in the assay on UACC-62 melanoma is greater than 57.8 µM; in the assay on NCI-H23 lung, > 10 µM and 38.4 µM; in the assay with 786-0 renal, > 10 µM and 13.1 µM; in the assay with HOP-62 NSCLC it was > 10 µM and 16.4 µM; with NCI/ADR-RES ovarian it was greater than 100 µM; with RXF 393 renal it was 3.09 µM and 1.7 µM. The results for the TGI in the assay with HL-60(TB) leukemia and in the assay on CCRF-CEM leukemia were greater than 100 µM and greater than 30 µM, respectively.
As to `CC(N)CC(=O)O` (stereo not given), the TGI in the assay with UACC-62 melanoma, with KM20L2 colon, with NCI-H23 lung, in the assay with 786-0 renal, in the assay on RXF 393 renal and with HL-60(TB) leukemia was greater than 5000 µM in each case. This compound also registered a TGI in the assay on CCRF-CEM leukemia greater than 5000 µM.
Turning to `COc1c(CC=C(C)C)c(O)c(C(CC(C)C)c2c(O)c(CC=C(C)C)c(O)c(C(C)=O)c2O)c(O)c1C(C)=O` (stereo not given), the TGI turned out to be 2.22 µM with UACC-62 melanoma; 0.877 µM in the assay with NCI-H23 lung; 11.9 µM in the assay on 786-0 renal; 3.96 µM in the assay on HOP-62 NSCLC; 10.2 µM with NCI/ADR-RES ovarian; 11.1 µM in the assay with RXF 393 renal. In addition, the TGI in the assay with HL-60(TB) leukemia was determined as 3.28 µM; in the assay on CCRF-CEM leukemia, 1.65 µM.
Take `NCc1ccc(-c2nc(-c3ccc(Cl)c(O)c3)c(-c3ccncc3)[nH]2)cc1`: the GI50 is 2.53 µM with UACC-62 melanoma; 13.5 µM in the assay on NCI-H23 lung; greater than 25 µM in the assay with 786-0 renal; greater than 25 µM in the assay on HOP-62 NSCLC; greater than 25 µM in the assay on NCI/ADR-RES ovarian; greater than 19.2 µM in the assay with RXF 393 renal. The GI50 with HL-60(TB) leukemia was 15.2 µM; in the assay on CCRF-CEM leukemia, greater than 25 µM. Also, the TGI in the assay on UACC-62 melanoma, in the assay with NCI-H23 lung, with 786-0 renal, in the assay on HOP-62 NSCLC, with NCI/ADR-RES ovarian and in the assay on RXF 393 renal was greater than 25 µM throughout. Also, the TGI in the assay with HL-60(TB) leukemia and in the assay on CCRF-CEM leukemia was greater than 25 µM each time.
For the compound `CC1CCC2(C)C(CC=C(C=O)C2(O)C=O)C12CO2` (stereo not given), the TGI with UACC-62 melanoma was determined as 4.02 µM; with KM20L2 colon, 6.09 µM; with NCI-H23 lung, 5.83 µM; with 786-0 renal it was 5.83 µM; in the assay with HOP-62 NSCLC it was 40.3 µM; with RXF 393 renal it was 2.85 µM. Moreover, the figures for the total growth inhibition concentration (TGI) in the assay on HL-60(TB) leukemia and in the assay with CCRF-CEM leukemia were 2.92 µM and 4.01 µM, respectively.
With `O=S(=O)(NCCCNc1cc(-c2cn(-c3ccccc3)nc2-c2cccc(O)c2)ccn1)c1ccc(F)cc1`, the GI50 with UACC-62 melanoma is 2.92 µM; in the assay with NCI-H23 lung, 3.48 µM; with 786-0 renal, 2.35 µM; in the assay with HOP-62 NSCLC, 4.98 µM; in the assay with NCI/ADR-RES ovarian, 3.24 µM; in the assay on RXF 393 renal it was 3.21 µM. Besides, the GI50 is 2.2 µM with HL-60(TB) leukemia and 2.45 µM in the assay with CCRF-CEM leukemia. Besides, the TGI in the assay with UACC-62 melanoma came out at 12 µM; in the assay with NCI-H23 lung, 19 µM; with 786-0 renal, 6.23 µM; in the assay on HOP-62 NSCLC it was 19.3 µM; in the assay on NCI/ADR-RES ovarian it was 22.4 µM; in the assay with RXF 393 renal, 14.6 µM. For the same compound, the results for the concentration for total growth inhibition (TGI) in the assay with HL-60(TB) leukemia and with CCRF-CEM leukemia were 5.85 µM and 9.41 µM, respectively.
`CC(=O)N(O)c1ccc(/C=C/c2ccccc2)cc1`: the GI50 was 1.46 µM in the assay on UACC-62 melanoma; 3.6 µM in the assay with NCI-H23 lung; 0.768 µM with 786-0 renal; 1.98 µM with HOP-62 NSCLC; 2.21 µM with NCI/ADR-RES ovarian; 0.539 µM with RXF 393 renal. The GI50 is 1.07 µM in the assay with HL-60(TB) leukemia and 0.137 µM with CCRF-CEM leukemia. For the same compound, the TGI was 4.69 µM in the assay on UACC-62 melanoma; 36.3 µM in the assay on NCI-H23 lung; 3.46 µM with 786-0 renal; greater than 35.7 µM in the assay on HOP-62 NSCLC; 44.1 µM with NCI/ADR-RES ovarian; 1.9 µM in the assay on RXF 393 renal. Further, the TGI with HL-60(TB) leukemia and in the assay on CCRF-CEM leukemia was greater than 100 µM each time.
For the compound `CC(C)N(Cc1ccc(F)cc1)c1ccc(CO)c(Cl)c1`, the GI50 in the assay with UACC-62 melanoma was 0.0664 µM; with NCI-H23 lung, 3.31 µM; in the assay on 786-0 renal, 7 µM; in the assay with HOP-62 NSCLC, 1.14 µM; in the assay with NCI/ADR-RES ovarian, 10.4 µM; in the assay with RXF 393 renal, 2.51 µM. Also, the GI50 is 3.15 µM in the assay on HL-60(TB) leukemia and 12.1 µM with CCRF-CEM leukemia. For the same compound, the TGI in the assay on UACC-62 melanoma came to 0.4 µM; in the assay on NCI-H23 lung it was 21.8 µM; with 786-0 renal it was 22.1 µM; in the assay on HOP-62 NSCLC it was 17.6 µM; in the assay with NCI/ADR-RES ovarian, 23.8 µM; in the assay with RXF 393 renal, 19.6 µM. The TGI in the assay on HL-60(TB) leukemia turned out to be 21.8 µM; with CCRF-CEM leukemia it was 33.4 µM.
Regarding `CCN(Cc1ccc(F)cc1)c1ccc(CO)c(C(F)(F)F)c1`, the GI50 is 1.41 µM in the assay with UACC-62 melanoma; 11.1 µM in the assay with NCI-H23 lung; 12.4 µM in the assay on 786-0 renal; 9.23 µM with HOP-62 NSCLC; 13.7 µM in the assay with NCI/ADR-RES ovarian; 14.9 µM with RXF 393 renal. Also, the GI50 in the assay with HL-60(TB) leukemia was 15.8 µM; in the assay with CCRF-CEM leukemia it was 14.7 µM. The TGI is 7.33 µM with UACC-62 melanoma; 24.2 µM with NCI-H23 lung; 26.2 µM with 786-0 renal; 21.2 µM in the assay on HOP-62 NSCLC; 28 µM in the assay on NCI/ADR-RES ovarian; 28.3 µM in the assay on RXF 393 renal. The TGI with HL-60(TB) leukemia stood at 41.9 µM; in the assay on CCRF-CEM leukemia, 43.7 µM.
